PubChem BioAssay (NCI)
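GI50 = concentration required for 50% inhibition of growth. Definition used: TGI = concentration required for complete inhibition of growth.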

Experiments:
Experiment in all cases: inhibition of tumour cell growth, NCI panel, 384-well format
[1] = test system: EKVX NSCLC
[2] = test system: UO-31 renal
[3] = test system: SK-MEL-5 melanoma
[4] = test system: SK-OV-3 ovarian
[5] = test system: HOP-62 NSCLC
[6] = test system: MDA-MB-435 melanoma
[7] = test system: HS 578T breast
[8] = test system: UACC-257 melanoma
[9] = test system: T-47D breast
[10] = test system: TK-10 renal
[11] = test system: CCRF-CEM leukemia
[12] = test system: MOLT-4 leukemia
[13] = test system: ACHN renal
[14] = test system: RPMI-8226 leukemia
[15] = test system: HOP-92 NSCLC
[16] = test system: SF-295 CNS
[17] = test system: M14 melanoma
[18] = test system: HT29 colon
[19] = test system: OVCAR-4 ovarian
[20] = test system: A498 renal
[21] = test system: LOX IMVI melanoma
[22] = test system: SN12C renal
[23] = test system: PC-3 prostate
[24] = test system: NCI-H226 lung
[25] = test system: OVCAR-3 ovarian
[26] = test system: 786-0 renal
[27] = test system: U251 glioblastoma
[28] = test system: MALME-3M melanoma
[29] = test system: DU-145 prostate
[30] = test system: NCI-H522 lung
[31] = test system: KM12 colon
[32] = test system: NCI/ADR-RES ovarian
[33] = test system: HL-60(TB) leukemia
[34] = test system: SK-MEL-2 melanoma
[35] = test system: HCT-15 colon
[36] = test system: SF-268 CNS
[37] = test system: NCI-H460 NSCLC
[38] = test system: A549 NSCLC
[39] = test system: HCC-2998 colon
[40] = test system: BT-549 breast
[41] = test system: SNB-75 CNS
[42] = test system: NCI-H23 lung
[43] = test system: OVCAR-5 ovarian
[44] = test system: SNB-19 CNS
[45] = test system: OVCAR-8 ovarian
[46] = test system: UACC-62 melanoma
[47] = test system: HCT-116 colon
[48] = test system: NCI-H322M lung
[49] = test system: MCF7 breast
[50] = test system: IGROV1 ovarian
[51] = test system: CAKI-1 renal
[52] = test system: MDA-MB-468 breast
[53] = test system: MDA-MB-231 breast
[54] = test system: COLO 205 colon
[55] = test system: K-562 leukemia
[56] = test system: RXF 393 renal
[57] = test system: SF-539 CNS
[58] = test system: SW-620 colon
[59] = test system: SK-MEL-28 melanoma

`CNC(=O)c1cccc2cc(Oc3ccnc4cc(OCC5(N)CC5)c(OC)cc34)ccc12` gave a GI50 [1] of 3.66 µM, a TGI [1] of 14.8 µM and a GI50 [2] of 3.17 µM. It also gave a TGI [2] of 10.9 µM, a GI50 [3] of 2.3 µM and a TGI [3] of 8.66 µM. It also gave a GI50 [4] of 3.01 µM, a TGI [4] of 11.6 µM and a GI50 [5] of 2.91 µM. It also gave a TGI [5] of 15.5 µM, a GI50 [6] of 2.63 µM and a TGI [6] of 7.43 µM. For the same compound, the GI50 [7] was 1.23 µM, the TGI [7] was 4.08 µM and the GI50 [8] was 4.04 µM. The TGI [8] was 14.2 µM, the GI50 [9] was 2.14 µM and the TGI [9] was 7.39 µM. It also gave a GI50 [10] of 2.55 µM, a TGI [10] of 6.52 µM and a GI50 [11] of 1.67 µM. It also gave a TGI [11] of 3.23 µM, a GI50 [12] of 1.2 µM and a TGI [12] of 2.45 µM. The GI50 [13] was 1.67 µM, the TGI [13] was 3.37 µM and the GI50 [14] was 1.98 µM. The TGI [14] was 5.13 µM, the GI50 [15] was 4.13 µM and the TGI [15] was 15.2 µM. The GI50 [16] was 6.14 µM, the TGI [16] was 18.7 µM and the GI50 [17] was 3.97 µM. For the same compound, the TGI [17] was 14.3 µM, the GI50 [18] was 5.88 µM and the TGI [18] was 17.9 µM. For the same compound, the GI50 [19] was 1.48 µM, the TGI [19] was 4.04 µM and the GI50 [20] was 2.5 µM. The TGI [20] was 6.93 µM, the GI50 [21] was 2.41 µM and the TGI [21] was 5.84 µM. For the same compound, the GI50 [22] was 2.55 µM, the TGI [22] was 8.63 µM and the GI50 [23] was 4.42 µM. It also gave a TGI [23] of 16.2 µM, a GI50 [24] of 1.03 µM and a TGI [24] of 4.73 µM. For the same compound, the GI50 [25] was 2.23 µM, the TGI [25] was 5.94 µM and the GI50 [26] was 1.77 µM. For the same compound, the TGI [26] was 3.49 µM, the GI50 [27] was 3.73 µM and the TGI [27] was 14.9 µM. It also gave a GI50 [28] of 4.05 µM, a TGI [28] of 15.7 µM and a GI50 [29] of 5.43 µM. The TGI [29] was 17.6 µM, the GI50 [30] was 2.75 µM and the TGI [30] was 9.57 µM. For the same compound, the GI50 [31] was 3.83 µM, the TGI [31] was 15.1 µM and the GI50 [32] was 13.3 µM. For the same compound, the TGI [32] was 27 µM, the GI50 [33] was 2.28 µM and the TGI [33] was 3.75 µM. For the same compound, the GI50 [34] was 1.89 µM, the TGI [34] was 4.35 µM and the GI50 [35] was 3.87 µM. For the same compound, the TGI [35] was 13.1 µM, the GI50 [36] was 4.31 µM and the TGI [36] was 17.9 µM. It also gave a GI50 [37] of 2.74 µM, a TGI [37] of 7.12 µM and a GI50 [38] of 4.22 µM. The TGI [38] was 14.6 µM, the GI50 [39] was 5.53 µM and the TGI [39] was 16 µM. The GI50 [40] was 1.78 µM, the TGI [40] was 8.85 µM and the GI50 [41] was 1.02 µM. It also gave a TGI [41] of 9.33 µM, a GI50 [42] of 4.73 µM and a TGI [42] of 16.4 µM. For the same compound, the GI50 [43] was 5.37 µM, the TGI [43] was 16.8 µM and the GI50 [44] was 3.89 µM. It also gave a TGI [44] of 15.7 µM, a GI50 [45] of 4.05 µM and a TGI [45] of 16.1 µM. The GI50 [46] was 2.37 µM, the TGI [46] was 6.72 µM and the GI50 [47] was 1.98 µM. For the same compound, the TGI [47] was 3.84 µM, the GI50 [48] was 6.8 µM and the TGI [48] was 19.4 µM. It also gave a GI50 [49] of 2.37 µM, a TGI [49] of 10.8 µM and a GI50 [50] of 5.36 µM. It also gave a TGI [50] of 17.5 µM, a GI50 [51] of 2.02 µM and a TGI [51] of 5.35 µM. It also gave a GI50 [52] of 2.38 µM, a TGI [52] of 5.54 µM and a GI50 [53] of 3.64 µM. For the same compound, the TGI [53] was 14.4 µM, the GI50 [54] was 3.22 µM and the TGI [54] was 10.2 µM. For the same compound, the GI50 [55] was 1.7 µM, the TGI [55] was 3.59 µM and the GI50 [56] was 1.64 µM. The TGI [56] was 4.39 µM, the GI50 [57] was 0.621 µM and the TGI [57] was 4.94 µM. The GI50 [58] was 4.12 µM, the TGI [58] was 15 µM and the GI50 [59] was 12.1 µM. For the same compound, the TGI [59] was 24.6 µM.
